Data on 19 compounds can be found in patent EP2197279B1, “C10-SUBSTITUTED CAMPTOTHECIN ANALOGS” (BIONUMERIK PHARMACEUTICALS, INC., priority 2007, dated 2009).

One data set concerns A2780/DX5 cells. Kind of data set: Sulforhodamine B (SRB) cytotoxicity assay in A2780/DX5 cells. The conditions noted are these: for IC50: SRB assay; for IC50 Ratio: A2780/DX5 versus A2780/WT. The class given is cell-based. The procedure:
(§1) Each of the testing conditions used in this study in both A2780/WT (wild-type) and A2780/DX5 cells were repeated in five to fifteen experiments that were performed on separate days. Each experiment consisted of one microtiter plate with at least eight individual assays of a given drug treatment condition on the plate. The sulforhodamine B (SRB) assay was used to assess cytotoxicity and absorbance at 570 nm (A570) in order to calculate the percentage of cell control (or percent cell survival) for the various treatment conditions in the plate wells.
(§2) Roswell Park Memorial Institute (RPMI 1640) medium, fetal bovine serum (FBS), and L-glutamine were purchased from Gibco BRL. Drugs were dissolved in sterile dimethylsulfoxide (DMSO), from American Type Culture Collection (ATCC) for stock solutions (2.5 to 5.0 mM). Subsequent dilutions were made using cell culture medium (prior to adding the drug to cells). SRB was purchased from Sigma and dissolved in 1.0% acetic acid. Trichloroacetic acid was purchased from VWR International.
(§3) Cells were manipulated in a Class IIA/B3 Biological Safety Cabinet (Forma Scientific) and maintained at 37°C in a humidified atmosphere containing 5% CO2 in a water-jacketed cell culture incubator (Forma Scientific). Cells were counted using a Coulter-Zl counter (Beckman-Coulter). Following drug treatment, plates were washed using a Biomek 2000 station (Beckman) and, following exposure to SRB dye, plates were washed using an automated plate washer (Model EL404, Bio-Tek Instruments). Percentage of control was correlated to A570 values and determined using a Model EL800 plate reader (Bio-Tek Instruments).
(§4) Population doubling times for the two cell lines used in this study encompassed a total of five cell doublings corresponding to approximately 5 days for A2780/WT and A2780/DX5 cells. A2780/WT and A2780/DX5 cells were cultured in RPMI 1640 medium supplemented with 10% fetal bovine serum and 1 mM of L-glutamine. Both cell lines were maintained as monolayered cultures in T-25 or T-75 flasks and then seeded to microtiter plate wells for experiments described herein. Prior to SRB assays, cell viability was monitored by evaluation of microtiter plate wells. Dead cells detach and float while living cells remain attached to the bottom of the cell well.
(§5) The sulforhodamine B (SRB) cytotoxicity assay (see, Skehan P, et al., New colorimetric cytotoxicity assay for anticancer-drug screening. J. Natl. Cancer Inst. 82: 1107-1112 (1990)) was used to determine the cytotoxic effects of BNP1350, SN-38, topotecan, 9-NH2-CPT, and 9-NO2-CPT on cell growth in vitro. Briefly, after the medium was aspirated from individual plate wells, trichloroacetic acid (100 µL of 10.0% solution) was added to each well, and the plates were incubated at 4°C for at least 1 hour. The plates were washed five-times with water using an automated microplate washer (Model EL 404, Bio-Tek Instruments), SRB solution (100 µL of 0.4 grams SRB dissolved in 100 mL 1.0% acetic acid) was added, and plates remained at room temperature for 15 minutes. The plates were then washed five-times using acetic acid (1.0 percent), air dried, and bound dye was solubilized in Tris base (150 µL, 10 mM). Plates were agitated (gently) for 5 minutes and the absorbance values of the SRB dye-protein adduct at a 570 nm wavelength (A570) were determined using an automated microtiter plate reader equipped with an A570 filter (Model EL800, BioTek Instruments). Table VII. Summary of Cytotoxicity Experiments in A2780/WT and DX5 Cells

Data set [1] concerns A2780/WT (wild-type) cells. Kind of data set: Sulforhodamine B (SRB) cytotoxicity assay in A2780/WT cells. The class given is cell-based. The protocol:
as §1, §2, §3, §4, §5

For data set [2] the following is noted: over the first 48 hours, IV camptothecin sodium; cited from earlier work.
The test system of a further data set is human plasma proteins. In words: Percent of free camptothecin analogs in human plasma (dialysis, HPLC). The conditions noted are these: 100 nM Compound Concentrations. The class given is in vitro ADME. The protocol:
Stocks of various camptothecin analogs were prepared in DMSO. […] Optimum HPLC detection conditions for each camptothecin analog were developed using traditional HPLC methods. Table VIII. Percent of Free Camptothecin Analogs in Human Plasma (100 nM Compound Concentrations)

The conditions of data set [3]: clinical studies in Japan alone; cited from earlier work.
In data set [4] the test system is Angiogenesis was induced by fibroblast growth factor. The conditions noted are these: dose levels of 210 mg/kg; cited from earlier work.
For data set [5] the following is noted: cited from earlier work.

For `CC[C@@]1(O)C(=O)OCc2c1cc1n(c2=O)C(O)c2c-1nc1ccc(OCC(N)=O)cc1c2CC[Si](C)(C)C` (stereo partly drawn) [Compound 7, 5-Hydroxy-7-(2'-trimethylsilanyl) ethyl-10-amidomethoxy camptothecin], the 50% inhibitory concentration (IC50) was more than 650 nM in the data set on A2780/DX5 cells and 266 nM in data set [1].

With `CC[C@@]1(O)C(=O)OCc2c1cc1n(c2=O)Cc2c-1nc1ccc(OCC#N)cc1c2CC[Si](C)(C)C` [Compound 15, 7-(2'-Trimethylsilanyl) ethyl-10-cyanomethoxy camptothecin], the “IC50 Ratio” value with A2780/DX5 cells worked out at 2.0. Besides, the figures for the half-maximal inhibitory concentration (IC50) (with A2780/DX5 cells; in data set [1]) were 18.9 nM and 9.6 nM, respectively.

On to `CC[C@@]1(O)C(=O)OCc2c1cc1n(c2=O)Cc2cc3ccccc3nc2-1` [CPT, (S)-4-Ethyl-4-hydroxy-1H-pyrano[3',4':6,7]indolizino[1,2-b]quinoline-3,14(4H,12H)-dione], for which the “mean urine recovery of CPT” value in data set [2] was 17.4%. The “Percent of Free CPTs” value in the data set on human plasma proteins was determined as 0%.

As to `CC[C@@]1(O)C(=O)OCc2c1cc1n(c2=O)Cc2c-1nc1ccc(OCCOC)cc1c2CC[Si](C)(C)C` [Compound 4, 7-(2'-Trimethylsilanyl)ethyl-10-(2'-methoxyethoxy) camptothecin], in the data set on A2780/DX5 cells, the “IC50 Ratio” value was found to be 1.0 and the midpoint of inhibition, the IC50, lay at 70.6 nM. In addition, inhibition in data set [1] was half-maximal at 70.1 nM (IC50). The “Percent of Free CPTs” value in the data set with human plasma proteins is given as 6%.

Regarding `CCOc1ccc2nc3c(c(CC[Si](C)(C)C)c2c1)C(O)n1c-3cc2c(c1=O)COC(=O)[C@]2(O)CC` (stereo partly drawn) [Compound 6, 5-hydroxy-7-(2'-trimethylsilanyl) ethyl-10-ethoxy camptothecin], the “IC50 Ratio” value in the data set with A2780/DX5 cells amounted to 1.1. Besides, the values for the 50% inhibitory concentration (IC50) (in the data set with A2780/DX5 cells; in data set [1]) were 168 nM and 158 nM, respectively.

For `CCc1c2c(nc3ccc(OC(=O)N4CCC(N5CCCCC5)CC4)cc13)-c1cc3c(c(=O)n1C2)COC(=O)[C@]3(O)CC` [CPT-11, 7-ethyl-10-[4-(1-piperidino)-1-piperidino] carbonyloxy camptothecin], the “patient deaths directly attributable to drug toxicity” value in data set [3] is “approximately 100”. Further, in data set [4], the neovascularization entry is “significant reduction of neovascularization”.

On to `CC[C@@]1(O)C(=O)OCc2c1cc1n(c2=O)Cc2c-1nc1ccc(OCCCO)cc1c2CC[Si](C)(C)C` [Compound 3, 7-(2'-trimethylsilanyl) ethyl-10-(3'-hydroxypropoxy) camptothecin], for which the “IC50 Ratio” value in the data set on A2780/DX5 cells is 2.5. Also, the IC50 in the data set with A2780/DX5 cells was 37.6 nM; in data set [1], 15 nM. For the same compound, the “Percent of Free CPTs” value in the data set on human plasma proteins turned out to be 6.8%.

With `CC[C@@]1(O)C(=O)OCc2c1cc1n(c2=O)Cc2c-1nc1ccc(OC(=O)N(C)C)cc1c2CC[Si](C)(C)C` [Compound 8, 7-(2'-trimethylsilanyl) ethyl-10-(dimethylcarbamoyloxy) camptothecin], in the data set with A2780/DX5 cells, the “IC50 Ratio” value is listed as 1.1 and inhibition was half-maximal at 61.1 nM (IC50). Besides, half-maximal inhibition in data set [1] (IC50) was put at 54.8 nM. The “Percent of Free CPTs” value in the data set with human plasma proteins came out at 6.4%.

As to `CC[C@@](O)(C(=O)O)c1cc2n(c(=O)c1CO)Cc1cc3ccccc3nc1-2` [carboxylate form of CPT], the “reduction of anti-tumor activity” value in data set [5] (carboxylate form versus lactone) is given as “at least 10 fold”. Besides, the “anti-tumor potency relative to the non-hydrolyzed lactone form of CPT” value in data set [5] (sodium hydroxide formulation, hydrolysed E-ring) was “approximately one-tenth or less”.

Regarding “7-(2'-Trimethylsilanyl) ethyl-10-(ethoxycarbonylmethoxyl camptothecin [Compound 9]”, in the data set with A2780/DX5 cells, the “IC50 Ratio” value was 1.7 and half-maximal inhibition (IC50) required 123 nM. In data set [1], the 50% inhibitory concentration (IC50) is 73.9 nM.

For `CCc1c2c(nc3ccc(O)cc13)-c1cc3c(c(=O)n1C2)COC(=O)[C@]3(O)CC` [SN-38, 10-hydroxy-7-ethyl camptothecin], the “Percent of Free CPTs” value in the data set with human plasma proteins was 15%.

With `CC[C@@]1(O)C(=O)OCc2c1cc1n(c2=O)Cc2c-1nc1ccc(OCC(N)=O)cc1c2CC[Si](C)(C)C` [Compound 10, 7-(2'-Trimethylsilanyl) ethyl-10-(amidomethyloxy) camptothecin], in the data set on A2780/DX5 cells, the “IC50 Ratio” value is recorded as 11.8 and the midpoint of inhibition, the IC50, lay at 401 nM. The compound also gave a 50% inhibitory concentration (IC50) in data set [1] of 34.1 nM. Besides, the “Percent of Free CPTs” value with human plasma proteins amounted to 25%.

Turning to `CC[C@@]1(O)C(=O)OCc2c1cc1n(c2=O)Cc2c-1nc1ccc(OC(C)C)cc1c2CC[Si](C)(C)C` [Compound 5, 7-(2'-Trimethylsilanyl) ethyl-10-isopropoxy camptothecin], the “IC50 Ratio” value in the data set on A2780/DX5 cells was 1.2. The concentration for half-maximal inhibition (IC50) is 103 nM in the data set with A2780/DX5 cells and 86.2 nM in data set [1].

On to `CCOc1ccc2nc3c(c(CC[Si](C)(C)C)c2c1)Cn1c-3cc2c(c1=O)COC(=O)[C@]2(O)CC` [Compound 14, 7-(2'-Trimethylsilanyl) ethyl-10-ethoxy camptothecin], for which, in the data set on A2780/DX5 cells, the “IC50 Ratio” value is 1.2 and the half-inhibitory concentration (IC50) was found to be 17.2 nM. This compound returned a 50% inhibitory concentration (IC50) in data set [1] of 14.1 nM.

In the case of `CC[C@@]1(O)C(=O)OCc2c1cc1n(c2=O)Cc2c-1nc1ccc(OC(=S)N(C)C)cc1c2CC[Si](C)(C)C` [Compound 13], in the data set on A2780/DX5 cells, the “IC50 Ratio” value was 2.0 and the IC50 was 228 nM. This compound also gave an IC50 in data set [1] of 117 nM.

“7-(2'-Trimethylsilanyl) ethyl-10-(4-moroholinecarbonyloxy) camptothecin [Compound 12]”: in the data set on A2780/DX5 cells, the “IC50 Ratio” value is recorded as 2.1 and the IC50 worked out at 135 nM. Further, half-maximal inhibition in data set [1] (IC50) was put at 65.6 nM.

In the case of `CC[C@@]1(O)C(=O)OCc2c1cc1n(c2=O)Cc2cc3c(CN(C)C)c(O)ccc3nc2-1` [Topotecan, 9-dimethylaminomethyl-10-hydroxy camptothecin], the “Percent of Free CPTs” value with human plasma proteins was found to be 100%.

As to `CC[C@@]1(O)C(=O)OCc2c1cc1n(c2=O)Cc2c-1nc1ccc(OCOC)cc1c2CC[Si](C)(C)C` [Compound 2, 7-(2'-Trimethylsilanyl) ethyl-10-methoxymethoxy camptothecin], in the data set on A2780/DX5 cells, the “IC50 Ratio” value was determined as 1.5 and it took 64.8 nM to reach half-maximal inhibition (IC50). In addition, inhibition in data set [1] was half-maximal at 43.4 nM (IC50).

Turning to `CC[C@@]1(O)C(=O)OCc2c1cc1n(c2=O)Cc2c-1nc1ccc(OC)cc1c2CC[Si](C)(C)C` [Compound 1, 7-(2'-Trimethylsilanyl) ethyl-10-methoxy camptothecin], in the data set on A2780/DX5 cells, the “IC50 Ratio” value came out at 1.3 and the half-inhibitory concentration (IC50) came to 21.9 nM. Moreover, the IC50 in data set [1] stood at 16.8 nM. In addition, in the data set on human plasma proteins, the “Percent of Free CPTs” value was determined as 3.5%.
